Experimental findings from ChEMBL document CHEMBL3351383, “Combination of chiral linkers with thiophenecarboximidamide heads to improve the selectivity of inhibitors of neuronal nitric oxide synthase” (Bioorg Med Chem Lett, 2014) are described below.

SMILES strings stand for the structures.

Experiment [1] can be described thus: Selectivity index, ratio of Ki for mouse macrophage iNOS to KI for rat nNOS.
Experiment [2] in a line: Selectivity index, ratio of Ki for bovine eNOS to KI for rat nNOS.

Turning to `N=C(Nc1cccc(O[C@H]2CN[C@H](COCc3cccc(F)c3)C2)c1)c1cccs1`, the Ratio Ki in experiment [1] was 90; in experiment [2] it was 86.

Take `N=C(Nc1ccc(OC[C@@H]2C[C@@H](Oc3cccc(NC(=N)c4cccs4)c3)CN2)cc1)c1cccs1`: the results for the Ratio Ki in experiment [1] and in experiment [2] were 163 and 142, respectively.

In the case of `N=C(Nc1cccc(OC[C@@H]2C[C@@H](OCc3cccc(F)c3)CN2)c1)c1cccs1`, the Ratio Ki in experiment [1] is 92; in experiment [2], 18.
